Measurements published in BigSolDB 2.1.

CC(=O)Nc1ccc(C(=O)O)cc1 showed a solubility (mole fraction) (in 1,4-dioxane, 288.15 K) of 0.00281, a solubility (mole fraction) (in 1,4-dioxane, 293.15 K) of 0.00326 and a solubility (mole fraction) (in 1,4-dioxane, 298.15 K) of 0.00345. The solubility (mole fraction) (in 1,4-dioxane, 303.15 K) was 0.00394, the solubility (mole fraction) (in 1,4-dioxane, 308.15 K) was 0.00446 and the solubility (mole fraction) (in 1,4-dioxane, 313.15 K) was 0.00491. The solubility (mole fraction) (in 1,4-dioxane, 318.15 K) was 0.00577, the solubility (mole fraction) (in 1,4-dioxane, 323.15 K) was 0.00639 and the solubility (mole fraction) (in 1,4-dioxane, 328.15 K) was 0.00698. It also gave a solubility (mole fraction) (in acetic acid, 293.15 K) of 0.00404, a solubility (mole fraction) (in acetic acid, 298.15 K) of 0.00486 and a solubility (mole fraction) (in acetic acid, 303.15 K) of 0.00554. It also gave a solubility (mole fraction) (in acetic acid, 308.15 K) of 0.00625, a solubility (mole fraction) (in acetic acid, 313.15 K) of 0.007 and a solubility (mole fraction) (in acetic acid, 318.15 K) of 0.00782. It also gave a solubility (mole fraction) (in acetic acid, 323.15 K) of 0.00894, a solubility (mole fraction) (in acetic acid, 328.15 K) of 0.00963 and a solubility (mole fraction) (in acetic acid, 333.15 K) of 0.0111. It also gave a solubility (mole fraction) (in acetone, 283.15 K) of 0.00302, a solubility (mole fraction) (in acetone, 288.15 K) of 0.00338 and a solubility (mole fraction) (in acetone, 293.15 K) of 0.00384. For the same molecule, the solubility (mole fraction) (in acetone, 298.15 K) was 0.00454, the solubility (mole fraction) (in acetone, 303.15 K) was 0.00538 and the solubility (mole fraction) (in acetone, 308.15 K) was 0.00635. It also gave a solubility (mole fraction) (in acetone, 313.15 K) of 0.00709, a solubility (mole fraction) (in acetone, 318.15 K) of 0.00804 and a solubility (mole fraction) (in acetone, 323.15 K) of 0.00913. For the same molecule, the solubility (mole fraction) (in acetonitrile, 283.15 K) was 0.000293, the solubility (mole fraction) (in acetonitrile, 288.15 K) was 0.000405 and the solubility (mole fraction) (in acetonitrile, 293.15 K) was 0.000433. It also gave a solubility (mole fraction) (in acetonitrile, 298.15 K) of 0.000515, a solubility (mole fraction) (in acetonitrile, 303.15 K) of 0.000653 and a solubility (mole fraction) (in acetonitrile, 308.15 K) of 0.000803. The solubility (mole fraction) (in acetonitrile, 313.15 K) was 0.000943, the solubility (mole fraction) (in acetonitrile, 318.15 K) was 0.00107 and the solubility (mole fraction) (in acetonitrile, 323.15 K) was 0.00132. The solubility (mole fraction) (in ethanol, 283.15 K) was 0.00586, the solubility (mole fraction) (in ethanol, 288.15 K) was 0.00674 and the solubility (mole fraction) (in ethanol, 293.15 K) was 0.0075. The solubility (mole fraction) (in ethanol, 298.15 K) was 0.00834, the solubility (mole fraction) (in ethanol, 303.15 K) was 0.00921 and the solubility (mole fraction) (in ethanol, 308.15 K) was 0.0101. It also gave a solubility (mole fraction) (in ethanol, 313.15 K) of 0.0114, a solubility (mole fraction) (in ethanol, 318.15 K) of 0.0126 and a solubility (mole fraction) (in ethanol, 323.15 K) of 0.014. The solubility (mole fraction) (in isobutanol, 283.15 K) was 0.00351, the solubility (mole fraction) (in isobutanol, 288.15 K) was 0.00456 and the solubility (mole fraction) (in isobutanol, 293.15 K) was 0.00519. The solubility (mole fraction) (in isobutanol, 298.15 K) was 0.00601, the solubility (mole fraction) (in isobutanol, 303.15 K) was 0.00696 and the solubility (mole fraction) (in isobutanol, 308.15 K) was 0.00822. For the same molecule, the solubility (mole fraction) (in isobutanol, 313.15 K) was 0.00912, the solubility (mole fraction) (in isobutanol, 318.15 K) was 0.0103 and the solubility (mole fraction) (in isobutanol, 323.15 K) was 0.0113. For the same molecule, the solubility (mole fraction) (in isopropanol, 283.15 K) was 0.00546, the solubility (mole fraction) (in isopropanol, 288.15 K) was 0.00663 and the solubility (mole fraction) (in isopropanol, 293.15 K) was 0.00713. The solubility (mole fraction) (in isopropanol, 298.15 K) was 0.00796, the solubility (mole fraction) (in isopropanol, 303.15 K) was 0.009 and the solubility (mole fraction) (in isopropanol, 308.15 K) was 0.00986. It also gave a solubility (mole fraction) (in isopropanol, 313.15 K) of 0.011, a solubility (mole fraction) (in isopropanol, 318.15 K) of 0.012 and a solubility (mole fraction) (in isopropanol, 323.15 K) of 0.0137. For the same molecule, the solubility (mole fraction) (in methanol, 283.15 K) was 0.006, the solubility (mole fraction) (in methanol, 288.15 K) was 0.00663 and the solubility (mole fraction) (in methanol, 293.15 K) was 0.00738. It also gave a solubility (mole fraction) (in methanol, 298.15 K) of 0.00839, a solubility (mole fraction) (in methanol, 303.15 K) of 0.00941 and a solubility (mole fraction) (in methanol, 308.15 K) of 0.0103. For the same molecule, the solubility (mole fraction) (in methanol, 313.15 K) was 0.0115, the solubility (mole fraction) (in methanol, 318.15 K) was 0.0126 and the solubility (mole fraction) (in methanol, 323.15 K) was 0.0141. For the same molecule, the solubility (mole fraction) (in n-butanol, 283.15 K) was 0.00486, the solubility (mole fraction) (in n-butanol, 288.15 K) was 0.00552 and the solubility (mole fraction) (in n-butanol, 293.15 K) was 0.00599. It also gave a solubility (mole fraction) (in n-butanol, 298.15 K) of 0.00722, a solubility (mole fraction) (in n-butanol, 303.15 K) of 0.00812 and a solubility (mole fraction) (in n-butanol, 308.15 K) of 0.00974. It also gave a solubility (mole fraction) (in n-butanol, 313.15 K) of 0.0108, a solubility (mole fraction) (in n-butanol, 318.15 K) of 0.0122 and a solubility (mole fraction) (in n-butanol, 323.15 K) of 0.0136. It also gave a solubility (mole fraction) (in n-pentanol, 283.15 K) of 0.00507, a solubility (mole fraction) (in n-pentanol, 288.15 K) of 0.00554 and a solubility (mole fraction) (in n-pentanol, 293.15 K) of 0.00607. It also gave a solubility (mole fraction) (in n-pentanol, 298.15 K) of 0.00659, a solubility (mole fraction) (in n-pentanol, 303.15 K) of 0.00741 and a solubility (mole fraction) (in n-pentanol, 308.15 K) of 0.00844. The solubility (mole fraction) (in n-pentanol, 313.15 K) was 0.00938, the solubility (mole fraction) (in n-pentanol, 318.15 K) was 0.0115 and the solubility (mole fraction) (in n-pentanol, 323.15 K) was 0.0138. It also gave a solubility (mole fraction) (in n-propanol, 283.15 K) of 0.0048, a solubility (mole fraction) (in n-propanol, 288.15 K) of 0.00548 and a solubility (mole fraction) (in n-propanol, 293.15 K) of 0.00608. For the same molecule, the solubility (mole fraction) (in n-propanol, 298.15 K) was 0.007, the solubility (mole fraction) (in n-propanol, 303.15 K) was 0.00792 and the solubility (mole fraction) (in n-propanol, 308.15 K) was 0.00883. For the same molecule, the solubility (mole fraction) (in n-propanol, 313.15 K) was 0.00986, the solubility (mole fraction) (in n-propanol, 318.15 K) was 0.0113 and the solubility (mole fraction) (in n-propanol, 323.15 K) was 0.0127. For the same molecule, the solubility (mole fraction) (in sec-butanol, 283.15 K) was 0.00515, the solubility (mole fraction) (in sec-butanol, 288.15 K) was 0.00602 and the solubility (mole fraction) (in sec-butanol, 293.15 K) was 0.00666. The solubility (mole fraction) (in sec-butanol, 298.15 K) was 0.00796, the solubility (mole fraction) (in sec-butanol, 303.15 K) was 0.00936 and the solubility (mole fraction) (in sec-butanol, 308.15 K) was 0.0107. It also gave a solubility (mole fraction) (in sec-butanol, 313.15 K) of 0.0122, a solubility (mole fraction) (in sec-butanol, 318.15 K) of 0.0136 and a solubility (mole fraction) (in sec-butanol, 323.15 K) of 0.015.
